Data as given in PubChem BioAssay (NCI).
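Test compounds were applied to cells in 96-well plates for 48 hours at 5 doses. Abbreviation: GI50, concentration required for 50% inhibition of growth. Definition used: TGI = concentration required for complete inhibition of growth.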 Where a SMILES comes first, the peptide text is derived from it. [ ]: non-standard residue; d: D form. The star is where a group is joined. Palmitoyl = CCCCCCCCCCCCCCCC(=O)*; Cbz = O=C(OCc1ccccc1)*; Aib = CC(C)(N)C(=O)O; OBn = c1ccc(CO*)cc1

Tests used:
Assay in all cases: NCI-60 cell line screen, 48 h
SK-OV-3 ovarian = system: SK-OV-3 ovarian
SK-MEL-5 melanoma = system: SK-MEL-5 melanoma
NCI-H460 lung = system: NCI-H460 lung
HCT-116 colon = system: HCT-116 colon
HOP-92 NSCLC = system: HOP-92 NSCLC
OVCAR-8 ovarian = system: OVCAR-8 ovarian
MDA-MB-435 = system: MDA-MB-435
CCRF-CEM leukemia = system: CCRF-CEM leukemia
T-47D breast = system: T-47D breast
MDA-MB-231 breast = system: MDA-MB-231 breast

Structure (SMILES)	TGI (SK-OV-3 ovarian)	TGI (SK-MEL-5 melanoma)	TGI (NCI-H460 lung)	TGI (HCT-116 colon)	TGI (HOP-92 NSCLC)	TGI (OVCAR-8 ovarian)	TGI (MDA-MB-435)	TGI (CCRF-CEM leukemia)	TGI (T-47D breast)	TGI (MDA-MB-231 breast)	GI50 (SK-OV-3 ovarian)	GI50 (SK-MEL-5 melanoma)	GI50 (NCI-H460 lung)	GI50 (HCT-116 colon)	GI50 (HOP-92 NSCLC)	GI50 (OVCAR-8 ovarian)	GI50 (MDA-MB-435)	GI50 (CCRF-CEM leukemia)	GI50 (T-47D breast)	GI50 (MDA-MB-231 breast)
CC(C)(C)c1ccc2c(c1)C#Cc1cc3c(cc1OCCCO2)C#Cc1cc(C(C)(C)C)ccc1OCCCO3	> 100 µM	> 100 µM	> 100 µM	> 100 µM	> 100 µM	> 100 µM	> 100 µM	> 100 µM	> 100 µM	> 100 µM	–	–	–	–	–	–	–	–	–	–
COc1cc(Nc2ccc3c(c2)CCC3)nc(OC)n1	> 100 µM	62.3 µM	> 100 µM	> 100 µM	> 100 µM	> 100 µM	> 100 µM	> 100 µM	> 100 µM	> 100 µM	–	–	–	–	–	–	–	–	–	–
N#CC(c1ccccc1)N(CCOCCOCCN(C(=O)c1ccccc1)C(C#N)c1ccccc1)C(=O)c1ccccc1 (stereo not given)	> 100 µM	> 100 µM	> 100 µM	> 100 µM	> 100 µM	> 100 µM	> 100 µM	> 100 µM	67.4 µM	> 100 µM	–	–	–	–	–	–	–	–	–	–
Cc1ccc(/C=C2/N=C(N/N=C\C(O)C(O)C(O)C(O)CO)NC2=O)cc1 (stereo not given)	> 100 µM	> 100 µM	> 100 µM	> 100 µM	> 100 µM	> 100 µM	> 100 µM	> 100 µM	> 100 µM	> 100 µM	–	–	–	–	–	–	–	–	–	–
Clc1sc(Cl)c2c1[C@@H](Cl)C[C@@H]2Br	> 100 µM	> 100 µM	> 100 µM	> 100 µM	> 100 µM	> 100 µM	> 100 µM	88.1 µM	> 100 µM	> 100 µM	–	–	–	–	–	–	–	–	–	–
COc1cc2c(cc1OCCCN1C(=O)c3cccc4cccc(c34)C1=O)N=C[C@@H]1CCCN1C2=O	> 100 µM	> 63.6 µM	> 100 µM	> 100 µM	> 58.2 µM	> 100 µM	> 100 µM	22.2 µM	> 100 µM	> 100 µM	–	–	–	–	–	–	–	–	–	–
CC(NC(=O)C(C)(C)NC(=O)C(CC(=O)OCc1ccccc1)NC(=O)OCc1ccccc1)C(N)=O (stereo not given) (Cbz-Asp(OBn)-[Aib]-Ala-NH2; configuration not given here)	> 100 µM	> 100 µM	> 100 µM	> 100 µM	> 100 µM	> 100 µM	> 100 µM	> 100 µM	> 100 µM	> 100 µM	–	–	–	–	–	–	–	–	–	–
OCCCc1ccc2c(c1)[C@H](CO)[C@@H](c1ccc(O)cc1)O2	> 100 µM	32.7 µM	> 100 µM	> 100 µM	> 100 µM	> 100 µM	> 100 µM	> 100 µM	> 100 µM	> 100 µM	–	–	–	–	–	–	–	–	–	–
CO/N=C(/C(=O)OC)c1ccccc1COc1ccccc1C(F)(F)F	91.8 µM	25.8 µM	> 100 µM	> 100 µM	> 100 µM	> 100 µM	> 100 µM	> 100 µM	> 100 µM	> 100 µM	–	–	–	–	–	–	–	–	–	–
C/C1=C\[C@H](C)C[C@H](C)OC(=O)[C@H](C)NC(=O)[C@@H](Cc2ccc(O)c(Br)c2)N(C)C(=O)[C@H](C)NC(=O)[C@@H](C)C1	2.04 µM	0.315 µM	> 19.5 µM	> 12.2 µM	0.177 µM	> 7.69 µM	> 25 µM	> 10.3 µM	> 25 µM	0.518 µM	–	–	–	–	–	–	–	–	–	–
C[C@@H]1CC[C@H]2[C@H]1[C@H]1[C@@H](CC[C@]2(C)N=C=S)C1(C)C	> 100 µM	31.8 µM	47.3 µM	31.7 µM	84.7 µM	> 100 µM	96.6 µM	30.9 µM	> 100 µM	52.7 µM	–	–	–	–	–	–	–	–	–	–
O=C(CCSC1=NCCCN1)c1ccc(F)cc1	43.5 µM	36.4 µM	47.7 µM	39.3 µM	40.6 µM	> 94.3 µM	47.6 µM	11.6 µM	> 70.6 µM	49.1 µM	–	–	–	–	–	–	–	–	–	–
CSc1nc2c(c(N(C)C)n1)C(O)n1c(nc3ccccc31)S2 (stereo not given)	43.6 µM	> 100 µM	> 100 µM	> 62.1 µM	> 74.5 µM	> 56.8 µM	> 100 µM	> 100 µM	> 85.3 µM	> 100 µM	–	–	–	–	–	–	–	–	–	–
CCCCCCCCCCCCCCCC(=O)N1CCCC1C(=O)NCC(=O)NC(Cc1ccccc1)C(=O)N1CCCC1C(=O)NC(CO)C(=O)NC(Cc1ccc(O)cc1)C(=O)NC(CCCCN)C(=O)NC(CC(C)C)C(=O)NC(CCCN=C(N)N)C(=O)N1CCCC1C(=O)NCC(N)=O (stereo not given) (Palmitoyl-PGFPSYKLRPG-NH2; configuration not given here)	48.1 µM	> 100 µM	41.2 µM	31.9 µM	38.9 µM	55.4 µM	> 100 µM	33.8 µM	48.5 µM	32.8 µM	23.2 µM	28.7 µM	19.4 µM	14.8 µM	18.7 µM	22.1 µM	23.6 µM	17 µM	17.9 µM	17.5 µM
CC(C)(C)OC(=O)NC(CSSCC(NC(=O)OC(C)(C)C)C(=O)O)C(=O)O (stereo not given)	> 100 µM	> 100 µM	> 100 µM	> 100 µM	> 100 µM	> 100 µM	> 100 µM	> 100 µM	> 100 µM	> 100 µM	–	–	–	–	–	–	–	–	–	–
Nc1ncnc2c1ccn2C/C=C/CO	> 100 µM	> 100 µM	> 100 µM	> 100 µM	> 100 µM	> 100 µM	> 100 µM	> 100 µM	> 100 µM	> 100 µM	–	–	–	–	–	–	–	–	–	–
Cc1ccc2c(c1)c1ccc3c(c1n2C)C(=O)C=CC3=O	> 10 µM	> 10 µM	> 10 µM	2.92 µM	3.92 µM	6.01 µM	5.15 µM	0.62 µM	5.08 µM	6.01 µM	–	–	–	–	–	–	–	–	–	–
CC(C)N1CCN(c2ccc(OCC3COC(Cn4cncn4)(c4ccc(Cl)cc4Cl)O3)cc2)CC1 (stereo not given)	28.9 µM	4.92 µM	31.3 µM	23.4 µM	30.8 µM	39.2 µM	15.8 µM	32.5 µM	47.8 µM	28.5 µM	–	–	–	–	–	–	–	–	–	–
O=C(CNc1ccc(Cl)cc1Cl)Nn1c(-c2ccccc2)nc2ccccc2c1=O	> 100 µM	18.5 µM	30.5 µM	31.3 µM	22.7 µM	> 100 µM	30.2 µM	16.3 µM	38.5 µM	36.7 µM	–	–	–	–	–	–	–	–	–	–
COc1ccc(-c2nc3ccccc3c(=S)n2OC(C)=O)cc1	> 25 µM	> 25 µM	> 25 µM	> 25 µM	> 25 µM	> 25 µM	> 25 µM	> 25 µM	> 25 µM	> 25 µM	–	–	–	–	–	–	–	–	–	–
CCOC(=O)c1c2cccccc-2nc1Nc1cccc2c(C)ccnc12	> 10 µM	> 10 µM	> 10 µM	> 10 µM	> 10 µM	> 10 µM	> 10 µM	> 10 µM	> 10 µM	> 10 µM	–	–	–	–	–	–	–	–	–	–
C=CCn1c(=O)ccn(/C(=C/C(=O)OCC)C(=O)OCC)c1=O	74.3 µM	29.1 µM	34 µM	> 41.5 µM	9.15 µM	31.5 µM	26.2 µM	6.04 µM	19 µM	26 µM	–	–	–	–	–	–	–	–	–	–
CCOC(=O)C(NC(=O)CC)(N1CCN(c2cc3c(cc2F)c(=O)c(C(=O)O)cn3C2CC2)CC1)C(F)(F)F (stereo not given)	> 100 µM	> 100 µM	> 100 µM	> 100 µM	> 100 µM	> 100 µM	> 100 µM	> 100 µM	> 100 µM	> 100 µM	–	–	–	–	–	–	–	–	–	–
COc1ccc(C(=O)NCCN(C)C)c2nc3ccccc3cc12	8.69 µM	2.54 µM	2.55 µM	5.25 µM	8.05 µM	4.67 µM	5.13 µM	11.4 µM	12.6 µM	10.9 µM	–	–	–	–	–	–	–	–	–	–
Cc1cc(N(C)C)c2ccccc2[n+]1CCCCCCCCCC[n+]1c(C)cc(N(C)C)c2ccccc21	5.81 µM	1.07 µM	13 µM	12.4 µM	5.44 µM	16 µM	3.26 µM	13.5 µM	15.2 µM	6.15 µM	–	–	–	–	–	–	–	–	–	–
O=c1c2c(no[n+]2[O-])c2ccccc2n1-c1ccccc1	21.7 µM	20 µM	21.4 µM	6.73 µM	17.6 µM	11.1 µM	14.6 µM	7.21 µM	23.6 µM	24.8 µM	–	–	–	–	–	–	–	–	–	–
Cc1nc2ccccc2c(-n2cccn2)c1CCn1cccn1	> 100 µM	> 100 µM	> 100 µM	> 100 µM	> 100 µM	> 100 µM	> 100 µM	> 100 µM	> 100 µM	> 100 µM	–	–	–	–	–	–	–	–	–	–
O=C1N(Cc2ccccc2)C2CSCC2N1Cc1ccccc1 (stereo not given)	> 100 µM	30.3 µM	55.8 µM	> 100 µM	77.7 µM	> 100 µM	51.5 µM	> 100 µM	91.8 µM	68.3 µM	–	–	–	–	–	–	–	–	–	–
COc1ccc(/C=N/NC(=O)c2ccc(O)c(CN(C)C)c2)cc1	> 100 µM	> 100 µM	> 100 µM	> 100 µM	> 100 µM	> 100 µM	> 100 µM	> 100 µM	> 100 µM	> 100 µM	–	–	–	–	–	–	–	–	–	–
